This is an account of results in ChEMBL document CHEMBL4715852, “Advances in the Design of Genuine Human Tyrosinase Inhibitors for Targeting Melanogenesis and Related Pigmentations” (J Med Chem, 2020).

Assay [1] deals with T1, Tyrosinase (Homo sapiens, UniProt P14679).
T1 sequence (P14679 whole entry): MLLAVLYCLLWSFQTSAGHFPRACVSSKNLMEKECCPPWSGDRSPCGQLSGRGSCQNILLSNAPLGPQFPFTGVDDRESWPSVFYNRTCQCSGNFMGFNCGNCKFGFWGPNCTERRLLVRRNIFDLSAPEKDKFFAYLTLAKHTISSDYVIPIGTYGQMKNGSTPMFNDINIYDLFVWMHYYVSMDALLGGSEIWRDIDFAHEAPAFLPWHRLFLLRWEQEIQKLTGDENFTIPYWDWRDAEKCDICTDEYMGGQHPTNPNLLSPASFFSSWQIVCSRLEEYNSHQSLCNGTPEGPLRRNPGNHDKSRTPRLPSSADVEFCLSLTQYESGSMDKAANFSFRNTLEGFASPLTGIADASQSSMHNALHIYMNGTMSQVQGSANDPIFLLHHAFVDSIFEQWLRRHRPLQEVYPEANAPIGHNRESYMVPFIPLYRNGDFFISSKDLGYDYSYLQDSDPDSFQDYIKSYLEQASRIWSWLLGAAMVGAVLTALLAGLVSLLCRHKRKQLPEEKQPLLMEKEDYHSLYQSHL
Briefly: Inhibition of human tyrosinase using L- DOPA as substrate by MBTH based assay.

Assay [2] deals with T1, Tyrosinase. Briefly: Inhibition of tyrosinase in human melanocytes using L-[3,5-3H]-tyrosine as substrate incubated for 1 to 3 days by liquid scintillation counting method. It is filed as cell-based, Melanocyte.
Assay [3] deals with T1, Tyrosinase. Briefly: Inhibition of human HMV-II cell derived tyrosinase using DOPA as substrate incubated for 5 mins by light absorbance method. Also on record: species or system HMV-2 cell line.
In assay [4] the target is T1, Tyrosinase. Briefly: biochemical.
Description: Inhibition of human His-tagged tyrosinase expressed in HEK 293 cells using L-DOPA as substrate by MBTH based assay
Assay [5] deals with T2, Mushroom tyrosinase (Agaricus bisporus, UniProt O42713+Q00024+C7FF04+C7FF05). Briefly: Inhibition of mushroom tyrosinase using L-tyrosine as substrate by spectrophotometric method.
Assay [6] has as its target T1, Tyrosinase. Briefly: Inhibition of human His-tagged tyrosinase expressed in HEK 293 cells using L-DOPA as substrate by Lineweaver-Burk plot analysis. Also on record: species or system HEK293.
Assay [7] concerns the target T1, Tyrosinase. Put plainly: Inhibition of tyrosinase in human neonatal foreskin epidermal melanocyte cells using L-tyrosine and L-DOPA as substrate preincubated for 2 days followed by cell lysis and subsequent substrate addition and measured after 3 hr by spectrophotometric method. It is filed as cell-based.
The target of assay [8] is T1, Tyrosinase. Put plainly: Inhibition of human tyrosinase expressed in human SKMEL188 cell lysate using L- DOPA as substrate incubated for 8 hrs. The class given is subcellular, SK-MEL-188.
The target in assay [9] is T1, Tyrosinase. Put plainly: Inhibition of human tyrosinase expressed in HEK293 cells using L-tyrosine as substrate and DOPA as cofactor by indirect spectrophotometric method. The class given is cell-based.
The target of assay [10] is T1, Tyrosinase. Briefly: Inhibition of tyrosinase in human neonatal foreskin epidermal melanocyte cells using L-DOPA as substrate preincubated for 24 hrs followed by cell lysis and subsequent substrate addition and measured after 1 hr by ELISA. It is filed as cell-based. For orientation: ELISA stands for enzyme-linked immunosorbent assay.
In assay [11] the target is T1, Tyrosinase. Briefly: Inhibition of human tyrosinase expressed in HEK293 cells. It is filed as cell-based.
Assay [12] concerns the target T2, Mushroom tyrosinase. Briefly: Inhibition of mushroom tyrosinase.
Assay [13] has as its target T1, Tyrosinase. Put plainly: Inhibition of human HMV-II cell derived tyrosinase using L-DOPA as substrate by light absorbance method. The class given is cell-based, HMV-2 cell line.
Assay [14] deals with T1, Tyrosinase. Put plainly: Inhibition of human tyrosinase expressed in Escherichia coli.
Assay [15] deals with T1, Tyrosinase. Put plainly: Mixed inhibition of recombinant human tyrosinase expressed in baculovirus infected sf9 cells using L-DOPA as substrate by double-reciprocal plot analysis.
The target of assay [16] is T2, Mushroom tyrosinase.
Description: Competitive inhibition of White button mushroom tyrosinase using L-DOPA as substrate by Lineweaver-Burk plot
Assay [17] has as its target T1, Tyrosinase. Put plainly: Inhibition of tyrosinase in neonatal human epidermal melanocytes. Also on record: species or system Melanocyte.
The target in assay [18] is T1, Tyrosinase. Briefly: Inhibition of tyrosinase in human melanocyte cells using L-DOPA as substrate by absorbance method. The class given is cell-based.

Structures are written as SMILES.

As for `CCSCc1cc(=O)c(O)co1`, on Tyrosinase [1], the Ki stood at 19 µM.
The same measure, in the same setting: with `CCCSCc1cc(=O)c(O)co1` the figure was 27 µM.
On the same count and under the same terms, with `CCCCCSCc1cc(=O)c(O)co1` the figure was 46 µM.
On to `Oc1ccc(-c2csc(Nc3ncccn3)n2)c(O)c1`, for which inhibition against Tyrosinase [1] was half-maximal at 3200 nM (IC50).
For the molecule `CC(C)(C)c1ccc(O)cc1`, the midpoint of inhibition against Tyrosinase [2], the IC50, lay at 10 µM.
The molecule `Oc1ccc2cc[nH]c2c1` displayed an IC50 against Tyrosinase [3] of 22 µM.
Consider `CC(c1ccccc1)c1ccc(O)cc1O` (configuration not stated), for which the IC50 worked out at 131 µM against Tyrosinase [4] and 0.3 µM against Mushroom tyrosinase [5]. At Tyrosinase [6], this molecule yielded a Ki of 24 µM.
On Tyrosinase [7], `C=C1OC(=O)/C(=C\CCCCCCCCCCCCC)[C@H]1O` displayed an IC50 of 1000 nM.
In the case of `CC(C)C(=O)Nc1nc(-c2ccc(O)cc2O)cs1`, the IC50 at Tyrosinase [4] was 1.1 µM. This molecule showed a Ki on Tyrosinase [6] of 0.25 µM.
`N[C@H](Cc1ccccc1)C(=O)O[C@H]1CC[C@H](c2ccc(O)cc2O)CC1` displayed an IC50 at Tyrosinase [8] of 2000 nM.
With `CC(C)SCc1cc(=O)c(O)co1`, the Ki on Tyrosinase [1] was 50 µM.
`O=c1cc(-c2ccc(O)c(O)c2)oc2cc(OS(=O)(=O)O)cc(O)c12` registered an IC50 against Tyrosinase [9] of 16 µM.
Molecule `COc1cc(/C=C\C(=O)NCCCCNC(=O)/C=C/c2ccc(O)c(OC)c2)ccc1O` showed an IC50 against Tyrosinase [10] of 85 µM.
Regarding `CSCc1cc(=O)c(O)co1`, affinity on Tyrosinase [1] was put at a Ki of 46 µM.
Molecule `O=C(Nc1nc(-c2ccc(O)cc2O)cs1)C1CCCCC1` displayed an IC50 against Tyrosinase [1] of 4600 nM.
As to `O=C(/C=C/c1ccc(O)cc1)OC1=C(O)C(=O)O[C@@H]1[C@H](O)CO`, on Tyrosinase [11], the midpoint of inhibition, the IC50, lay at 10 µM.
`O=C(/C=C/c1ccc(O)cc1)OC1=C(O)[C@@H]([C@H](O)CO)OC1=O` registered an IC50 against Tyrosinase [11] of 40 µM.
For `CC(C)(C)C(=O)Nc1nc(-c2ccc(O)cc2O)cs1`, on Tyrosinase [1], the IC50 turned out to be 1400 nM.
On to `CCCCn1cc(O)c(=O)cc1C`, for which, at Tyrosinase [1], the Ki is 100 µM.
With `COc1ccc(CCCc2ccc(O)cc2O)c(OC)c1C`, the IC50 at Mushroom tyrosinase [12] came to 0.24 µM.
Turning to `CC(=O)Nc1nc(-c2ccc(O)cc2O)cs1`, 3200 nM corresponded to half-maximal inhibition on Tyrosinase [1] (IC50).
On the same count and under the same terms, with `O=C(Nc1nc(-c2ccc(O)cc2O)cs1)c1ccc(CO)cc1` the figure was 1600 nM.
For the molecule `COC1=CC(=C/C=C/C=C2C=C(OC)C(=O)C(OC)=C2)C=C(OC)C1=O`, the midpoint of inhibition against Tyrosinase [13], the IC50, lay at 2500 nM.
For `CCCn1cc(O)c(=O)cc1C`, the Ki on Tyrosinase [1] turned out to be 75 µM.
Take `O=C(Nc1nc(-c2ccc(O)cc2O)cs1)c1ccccc1`: the IC50 on Tyrosinase [1] stood at 2500 nM.
At Tyrosinase [10], `O=C(CCc1ccc(O)c(O)c1)c1c(O)cc(O)cc1O` came in with a concentration for half-maximal inhibition (IC50) of 32 µM.
On Tyrosinase [1], `Nc1nc(-c2ccc(O)cc2O)cs1` showed an IC50 of 51000 nM.
Molecule `O=C(O)c1ccc(Nc2nc(-c3ccc(O)cc3O)cs2)cc1` gave an IC50 against Tyrosinase [1] of 2600 nM.
Molecule `O=c1oc2ccccc2cc1O` [3-HYDROXYCOUMARIN] displayed a Ki at Tyrosinase [14] of 3.4 µM.
With `O=C(O)c1ccccc1` [BENZOIC ACID], the Ki on Tyrosinase [15] was 520 µM; on Mushroom tyrosinase [16], 4.6 µM.
For the molecule `O=C(O)/C=C/c1ccc(O)cc1` [COUMARIC ACID], the IC50 on Tyrosinase [11] and on Tyrosinase [17] was 2 µM each time.
On Tyrosinase [18], `COc1cc(/C=C/C(=O)CC(=O)/C=C/c2ccc(O)c(OC)c2)ccc1O` [CURCUMIN] showed an IC50 of 5 µM.
With `CCCCCCc1ccc(O)cc1O` [HEXYLRESORCINOL], the IC50 on Tyrosinase [4] was 94 µM; on Mushroom tyrosinase [5], 1.2 µM. On Tyrosinase [6], this molecule came in with a Ki of 39 µM.
For `O=c1cc(-c2ccc(O)c(O)c2)oc2cc(O)cc(O)c12` [LUTEOLIN], half-maximal inhibition at Tyrosinase [9] (IC50) required 60 µM.
For the molecule `COc1cc(/C=C/C(=O)NCCc2ccc(O)c(O)c2)ccc1O` [N-TRANS-FERULOYLDOPAMINE], the IC50 against Tyrosinase [17] is 50 µM.
In turn, `Oc1cccc(O)c1` [RESORCINOL] came in with an IC50 against Tyrosinase [4] of over 3000 µM.
The molecule `Oc1ccc(/C=C/c2cc(O)cc(O)c2)cc1` [RESVERATROL] gave an IC50 against Tyrosinase [11] of 9 µM.
In turn, `CCCCc1ccc(O)cc1O` [RUCINOL] displayed a Ki on Tyrosinase [6] of 9.1 µM. This molecule also displayed an IC50 against Mushroom tyrosinase [12] of 0.6 µM.
The molecule `CCCCCCCCCCCCC/C=C1\C(=O)O[C@@](C)(OC)[C@@H]1O` [SUBAMOLIDE A] registered an IC50 at Tyrosinase [7] of 1000 nM.

What is called Ki is a dissociation constant, usually derived from enzyme kinetics or from competition with a known ligand. A word on the IC50: it is the point on the concentration scale where inhibition reaches its midpoint. Low values mean inhibition by little substance, high ones a need for much substance.
